Experimental data as given in patent publication US9453051B2, “Cyclosporin derivatives” (priority 2011, dated 2016).

Tests used:
[1] = test system: NFAT; test: Cellular NFAT-reporter-gene assay (GloResponse NFAT-RE-luc2P HEK293); assay type: cell-based; details: Homo sapiens, HEK293, 16 h, read-out: NFAT-reporter-gene assay IC50
From the text: An antigen specific stimulation of the T-cell receptor causes the activation of transcription factors such as e.g. NFAT (nuclear factor of activated T cells). NFAT-activation is essential for the expression of interleukine-2 and therefore, for the proliferation of T-cells as part of the immune response. A stable NFAT-reporter-gene cell line enables the analysis of modulators of the NFAT-pathways and thus, the evaluation of the immunosuppressive effects of compounds.
The stably transfected reporter-gene cell line GloResponse NFAT-RE-luc2P HEK293 (promega Corp. USA) was cultivated in DMEM (10% FCS; 2 mM Glutamin; 200 μg/ml Hygromycin) and seeded on 96-well plates (200.000 cells/well). The compounds to be tested were either added to the cells in a 2-point-determination (5 μM and 10 μM) or an ICH-determination (concentration series 4.1 nM-1 μM). […] Immediately thereafter the cells were stimulated with 5 nM PMA and 2 μM ionomycin and incubated over 16 h (37° C.; cell incubator). This double stimulation simulates a T-cell receptor stimulation and causes a NFAT activation with subsequently expression of the luciferase-reporter-gene. The amount of luciferase was quantitatively determined after 16 h by measurement of the bioluminescence by Bright-Glo Luciferase-Assay-System (Promega Corp., USA). The averaged luciferase values of the vehicle treated (1% DMSO) and with PMA/ionomycin stimulated cells were used as positive control and reference value.

[2] = in vitro; details: human, Caco-2, pH 7.4
[3] = target: recombinant human wild type Cyp18 (Cyp18 wt) (Homo sapiens, UniProt P62937); test: biochemical
recombinant human wild type Cyp18 (Cyp18 wt), sequence (P62937 whole entry): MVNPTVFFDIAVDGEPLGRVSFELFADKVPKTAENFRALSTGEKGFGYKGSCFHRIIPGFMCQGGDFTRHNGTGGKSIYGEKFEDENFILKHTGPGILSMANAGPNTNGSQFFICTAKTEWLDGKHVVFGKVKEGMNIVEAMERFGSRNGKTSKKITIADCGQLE
Method: The determination was performed on a UV/Vis spectrometer at 10° C. cuvette temperature, whereby the device is operated at 390 nm in kinetic-mode (measurement buffer: 35 mM HEPES/NaOH pH 7.8 (AppliChem A1069)). 0.58 nM recombinant human wild type Cyp18 (Cyp18 wt), 2.33 nM bovine serum albumin (BSA) and 1 mg/ml chymotrypsin (Merck) solved in 35 mM HEPES/NaOH pH 7.8 as well as different concentration of each test substance, where appropriate, were in the cuvette. The reaction was started with a stock solution of Suc-Ala-Ala-Pro-Phe-4-nitroanilide (Bachem, 10 mg/ml DMSO) as substrate so that a final substrate concentration of 32 μM resulted. The extinction-time-curves were evaluated after expiry of the fast phase of the reaction i.e. after approximately 60 seconds according to a rate equation of a first-order reaction.

[4] = target: calcineurin (Homo sapiens, UniProt P62937+P63098+Q08209); test: Inhibition of the phosphatase activity of calcineurin (scintillation-proximity-assay, in presence of Cyp18);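 further: calcineurin dephosphorylation of a ³³P-labelled RII phosphopeptide, captured on streptavidin-coated wells and read by scintillation counting, with uninhibited enzyme activity taken as 100%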
Method: The measurement was carried out by incubation of 10 μMol of the biotinylated phosphopeptide [sequence]pSer-Val-Ala-Ala-Glu (MW=2192.0) (RH-peptide) marked with ^33P in a sample buffer (40 mM Tris-HCl, pH 7.5, 100 mM NaCl, 6 mM MgCl2, 0.5 mM dithiothreitol, 1 mM. CaCl2, 0.1 mg/ml bovine serum albumin) in presence of 50 nM calmodulin and 1.32 nM calcineurin at 30° C. for 20 min in a 96 well micro titer plate (Costar, Bodenheim, Germany). The total volume of the assay/well was 100 μl. After this reaction time a 90 μl aliquot of the reaction mixture was transferred into a scintillation cavity coated with streptavidin and incubated for 20 min at 22° C. After a washing step the RII phosphopeptide-associated ^33P radioactivity was measured in a MicroBeta Top Counter (Wallac) and the enzyme activity was indicated as average value of three measurements±S.D. The uninhibited dephosphorylation activity has been set on 100%.

[5] = Determination of cell permeability in PAMPA cell membranes (Parallel Artificial Membrane Permeability Assay); assay type: in vitro ADME; details: 500 μM, Hepes buffer pH 7.4, 16 hours, room temperature
Method: After an incubation of 16 hours at room temperature in a liquid chamber the optical density of the solution after filtration has been measured in a range of 250 to 500 nm in steps of 10 nm each. The percentage “Flux” has been calculated from the integral of the graph between 250 and 500 nm and standardized on the optical density determined in the parallel reaction without artificial membrane.

Row | Compound | IC50 [1] [µM] | Papp A→B at 2 h, 5 μM [2] [×10⁻⁶ cm/s] | Papp B→A at 2 h, 5 μM [2] [×10⁻⁶ cm/s] | IC50 [3] [µM] | IC50 [4] [µM] | Cell permeability in PAMPA-cell membranes [5] [% flux]
1 | CC[C@@H]1NC(=O)[C@H]([C@H](O)[C@H](C)Cc2nc3cc(C(N)=O)ccc3[nH]2)N(C)C(=O)[C@H](C(C)C)N(C)C(=O)[C@H](CC(C)C)N(C)C(=O)[C@H](CC(C)C)N(C)C(=O)[C@@H](C)NC(=O)[C@H](C)NC(=O)[C@H](CC(C)C)N(C)C(=O)[C@H](C(C)C)NC(=O)[C@H](CC(C)C)N(C)C(=O)CN(C)C1=O [Compound 23] | > 10 | 0.3 | 0.6 | 0.0038 | > 10 | 
2 | CC[C@@H]1NC(=O)[C@H]([C@H](O)[C@H](C)Cc2nc3ccc(C(=O)O)cc3n2C)N(C)C(=O)[C@H](C(C)C)N(C)C(=O)[C@H](CC(C)C)N(C)C(=O)[C@H](CC(C)C)N(C)C(=O)[C@@H](C)NC(=O)[C@H](C)NC(=O)[C@H](CC(C)C)N(C)C(=O)[C@H](C(C)C)NC(=O)[C@H](CC(C)C)N(C)C(=O)CN(C)C1=O [Compound 37] | > 10 | 0.1 |  |  |  | 2
3 | CC[C@@H]1NC(=O)[C@H]([C@H](O)[C@H](C)Cc2nc3cc(C(=O)O)c(C(=O)O)cc3[nH]2)N(C)C(=O)[C@H](C(C)C)N(C)C(=O)[C@H](CC(C)C)N(C)C(=O)[C@H](CC(C)C)N(C)C(=O)[C@@H](C)NC(=O)[C@H](C)NC(=O)[C@H](CC(C)C)N(C)C(=O)[C@H](C(C)C)NC(=O)[C@H](CC(C)C)N(C)C(=O)CN(C)C1=O [Compound 31] | > 10 | < 0.15 | < 0.18 | 0.0399 |  | 0.2
4 | CC[C@@H]1NC(=O)[C@H]([C@H](O)[C@H](C)Cc2nc3cc(C(=O)OC)c(C(=O)OC)cc3[nH]2)N(C)C(=O)[C@H](C(C)C)N(C)C(=O)[C@H](CC(C)C)N(C)C(=O)[C@H](CC(C)C)N(C)C(=O)[C@@H](C)NC(=O)[C@H](C)NC(=O)[C@H](CC(C)C)N(C)C(=O)[C@H](C(C)C)NC(=O)[C@H](CC(C)C)N(C)C(=O)CN(C)C1=O [Compound 32] | > 10 |  |  | 0.0249 | > 10 | 
5 | CC[C@@H]1NC(=O)[C@H]([C@H](O)[C@H](C)Cc2nc3cc(F)cc(C(=O)O)c3[nH]2)N(C)C(=O)[C@H](C(C)C)N(C)C(=O)[C@H](CC(C)C)N(C)C(=O)[C@H](CC(C)C)N(C)C(=O)[C@@H](C)NC(=O)[C@H](C)NC(=O)[C@H](CC(C)C)N(C)C(=O)[C@H](C(C)C)NC(=O)[C@H](CC(C)C)N(C)C(=O)CN(C)C1=O [Compound 21] | 5.3 |  |  | 0.0222 | > 10 | 
6 | CC[C@@H]1NC(=O)[C@H]([C@H](O)[C@H](C)Cc2nc3cc(-c4ccc(N)c(N)c4)ccc3[nH]2)N(C)C(=O)[C@H](C(C)C)N(C)C(=O)[C@H](CC(C)C)N(C)C(=O)[C@H](CC(C)C)N(C)C(=O)[C@@H](C)NC(=O)[C@H](C)NC(=O)[C@H](CC(C)C)N(C)C(=O)[C@H](C(C)C)NC(=O)[C@H](CC(C)C)N(C)C(=O)CN(C)C1=O [Compound 39] | 10 |  |  | 0.0061 | > 10 | 
7 | CCOC(=O)c1ccc2[nH]c(C[C@@H](C)[C@@H](O)[C@H]3C(=O)N[C@@H](CC)C(=O)N(C)CC(=O)N(C)[C@@H](CC(C)C)C(=O)N[C@@H](C(C)C)C(=O)N(C)[C@@H](CC(C)C)C(=O)N[C@@H](C)C(=O)N[C@H](C)C(=O)N(C)[C@@H](CC(C)C)C(=O)N(C)[C@@H](CC(C)C)C(=O)N(C)[C@@H](C(C)C)C(=O)N3C)nc2c1 [Compound 9] | > 10 |  |  | 0.0139 | 7 | 
8 | CC[C@@H]1NC(=O)[C@H]([C@H](O)[C@H](C)Cc2nc3cc(N)c(N)cc3[nH]2)N(C)C(=O)[C@H](C(C)C)N(C)C(=O)[C@H](CC(C)C)N(C)C(=O)[C@H](CC(C)C)N(C)C(=O)[C@@H](C)NC(=O)[C@H](C)NC(=O)[C@H](CC(C)C)N(C)C(=O)[C@H](C(C)C)NC(=O)[C@H](CC(C)C)N(C)C(=O)CN(C)C1=O [Compound 40] | > 10 |  |  | 0.0055 | 8 | 
9 | CC[C@@H]1NC(=O)[C@H]([C@H](O)[C@H](C)Cc2nc3cccc(C(=O)O)c3[nH]2)N(C)C(=O)[C@H](C(C)C)N(C)C(=O)[C@H](CC(C)C)N(C)C(=O)[C@H](CC(C)C)N(C)C(=O)[C@@H](C)NC(=O)[C@H](C)NC(=O)[C@H](CC(C)C)N(C)C(=O)[C@H](C(C)C)NC(=O)[C@H](CC(C)C)N(C)C(=O)CN(C)C1=O [Compound 28] | > 10 | < 0.4 | 0.3 |  |  | 3.3
10 | CC[C@@H]1NC(=O)[C@H]([C@H](O)[C@H](C)Cc2nc3nc(O)nc(O)c3[nH]2)N(C)C(=O)[C@H](C(C)C)N(C)C(=O)[C@H](CC(C)C)N(C)C(=O)[C@H](CC(C)C)N(C)C(=O)[C@@H](C)NC(=O)[C@H](C)NC(=O)[C@H](CC(C)C)N(C)C(=O)[C@H](C(C)C)NC(=O)[C@H](CC(C)C)N(C)C(=O)CN(C)C1=O [Compound 24] | > 10 |  |  | 0.0062 | > 10 | 
11 | CCC(CC)COC(=O)c1ccc2[nH]c(C[C@@H](C)[C@@H](O)[C@H]3C(=O)N[C@@H](CC)C(=O)N(C)CC(=O)N(C)[C@@H](CC(C)C)C(=O)N[C@@H](C(C)C)C(=O)N(C)[C@@H](CC(C)C)C(=O)N[C@@H](C)C(=O)N[C@H](C)C(=O)N(C)[C@@H](CC(C)C)C(=O)N(C)[C@@H](CC(C)C)C(=O)N(C)[C@@H](C(C)C)C(=O)N3C)nc2c1 [Compound 10] | > 10 |  |  | 0.0115 | 6.9 | 
12 | CC[C@@H]1NC(=O)[C@H]([C@H](O)[C@H](C)Cc2nc3cc(-c4nnn[nH]4)ccc3[nH]2)N(C)C(=O)[C@H](C(C)C)N(C)C(=O)[C@H](CC(C)C)N(C)C(=O)[C@H](CC(C)C)N(C)C(=O)[C@@H](C)NC(=O)[C@H](C)NC(=O)[C@H](CC(C)C)N(C)C(=O)[C@H](C(C)C)NC(=O)[C@H](CC(C)C)N(C)C(=O)CN(C)C1=O [Compound 33] | > 10 | < 0.15 | < 0.15 |  | > 10 | 0.25
13 | CC[C@@H]1NC(=O)[C@H]([C@H](O)[C@H](C)Cc2nc3cc(NC(=O)C(F)(F)F)ccc3[nH]2)N(C)C(=O)[C@H](C(C)C)N(C)C(=O)[C@H](CC(C)C)N(C)C(=O)[C@H](CC(C)C)N(C)C(=O)[C@@H](C)NC(=O)[C@H](C)NC(=O)[C@H](CC(C)C)N(C)C(=O)[C@H](C(C)C)NC(=O)[C@H](CC(C)C)N(C)C(=O)CN(C)C1=O [Compound 38] | 3.8 |  |  | 0.0143 | 3.34 | 
14 | CC[C@@H]1NC(=O)[C@H]([C@H](O)[C@H](C)Cc2nc3cc(NS(=O)(=O)C(F)(F)F)ccc3[nH]2)N(C)C(=O)[C@H](C(C)C)N(C)C(=O)[C@H](CC(C)C)N(C)C(=O)[C@H](CC(C)C)N(C)C(=O)[C@@H](C)NC(=O)[C@H](C)NC(=O)[C@H](CC(C)C)N(C)C(=O)[C@H](C(C)C)NC(=O)[C@H](CC(C)C)N(C)C(=O)CN(C)C1=O [Compound 47] | > 10 |  |  | 0.0132 | > 10 | 
15 | CC[C@@H]1NC(=O)[C@H]([C@H](O)[C@H](C)Cc2nc3cc(C(=O)O)ccc3n2C)N(C)C(=O)[C@H](C(C)C)N(C)C(=O)[C@H](CC(C)C)N(C)C(=O)[C@H](CC(C)C)N(C)C(=O)[C@@H](C)NC(=O)[C@H](C)NC(=O)[C@H](CC(C)C)N(C)C(=O)[C@H](C(C)C)NC(=O)[C@H](CC(C)C)N(C)C(=O)CN(C)C1=O [Compound 36] | > 10 | 0.3 |  |  | > 10 | 0.7
